# Earlier results in US20120316171A1, “Tryptophan Hydroxylase Inhibitors for the Treatment of Cancer” (priority 2009, published 2012).
# Assays:
# [1] = system: cholangiocarcinoma tumors; conditions: xenograft model of cholangiocarcinoma tumors; Alpini et al. 2008
# [2] = in vivo
smiles,measurement,setting,value
"N[C@@H](Cc1ccc(Cl)cc1)C(=O)O (racemic) [pCPA, para-chlorophenylalanine]",adverse effects of administration,carcinoid patients,unwanted psychological effects
same,"effect on symptoms of carcinoid syndrome (flushing, diarrhea, valvular damage)",carcinoid patients; reported in the 1960's,alleviated some of those symptoms
same,tumor growth,[1],suppressed tumor growth
same,blood-brain barrier passage,[2],crosses the blood-brain barrier
